The term solubility denotes the concentration that dissolves in the medium under given conditions.

The values below come from US20200323838A1, “LENALIDOMIDE IMMEDIATE RELEASE FORMULATIONS” (Synbias Pharma AG, priority 2017, published 2020).

Values after ≈ are worked out from the molar mass of the structure shown. Read-outs that look alike come from different tables or passages of the source.

The conditions of data set [1]: 0.1 HCl buffer (highest solubility); cited from earlier work.
The conditions of data set [2]: cited from earlier work.
A short description of data set [3]: Dissolution of hard gelatin capsules (Xtend Sotax dissolutor, HPLC detection). It counts as physicochemical. An excerpt:
Micronized lenalidomide form A (d(0.5)=10 μm) was mixed with microcrystalline cellulose in a ratio 1:10, filled manually in Size 2 HGC and analyzed for dissolution. Dissolution experiments were run in Xtend Sotax dissolutor, in phosphate buffer pH 6.5 and 0.01 HCl pH 1.8. Sampling time intervals were 10, 15, 20, min. In house developed isocratic HPLC analytical method was used for detection of lenalidomide in dissolution media.
Non-micronized lenalidomide form A (d(0.5)=30 μm) was mixed with microcrystalline cellulose in a ratio 1:10, filled manually in Size 2 HGC and analyzed for dissolution. Dissolution experiments were run in Xtend Sotax dissolutor, in phosphate buffer pH 6.5 and 0.01 HCl pH 1.8. Sampling time intervals were 10, 15, 20, min. In house developed isocratic HPLC analytical method was used for detection of lenalidomide in dissolution media.
20 mg of non-micronized lenalidomide form A were mixed with 20 mg microcrystalline cellulose, 60 mg lactose monohydrate and, filled manually in size 2 HGC and analyzed for dissolution as in Example 1.
Formulation prepared according to Example 6 was used for comparative dissolution with Revlimid HGCs in 50 mM phosphate buffer pH 6.8. The results in Table 8 show there was no difference between dissolution profile of Revlimid and tested HGC. […]

For data set [4] the following is noted: high solubility, low permeability; cited from earlier work.
The conditions of data set [5]: HCl buffer pH 1.8, containing 1% sodium lauryl sulfate; cited from earlier work.

As to `Nc1cccc2c1CN(C1CCC(=O)NC1=O)C2=O` (stereo not drawn) [Lenalidomide, 3-(4-amino-1,3-dihydro-1-oxo-2H-isoindol-2-yl)-2,6-piperidine dione], the solubility in data set [1] is 18.0 mg/mL (≈ 69.4 mM). Also, the “time to reach maximum serum concentration (Tmax)” value was 46.2 to 60 min in data set [2] (healthy volunteers, oral) and 71.4 min in data set [2] (patients with acute myeloid leukemia, oral administration, 25 mg). Further, the “lenalidomide API dissolved in 10 min” value in data set [3] is recorded as no less than 80%. Besides, the BCS class entry in data set [4] was “class III”.

As for `Nc1cccc2c1CN(C1CCC(=O)NC1=O)C2=O` (stereo not drawn) [Polymorph B], the solubility in data set [5] was 5.8 mg/mL (≈ 22.4 mM).
